Measured values: US20260217701A1, “SELECTIVE BET INHIBITORS AND USES THEREOF” (Tay Therapeutics Limited, priority 2022, published 2026)
Where two headings read alike, the source gives them in different places.

Test system: collagen-induced arthritis
Details: for animals with weight gain at end of study / diarrhea over the 21-day period / increase in body weight, day 21 vs day 0: rat, in vivo; for increase in body weight, day 21 vs day 0: po; for control of hind paw volume: reference treatments vs CIA+vehicle (group 2)
Procedure: (§1) The emulsion was cooled in an ice water bath during the formulation. The final concentration of collagen was 1 mg/mL. The emulsion is prepared fresh immediately prior to injection.
as §1
Experimental groups for the study are outlined in Table 5A. […] Animals in group one received no immunization.
IHC markers for staining were selected after evaluating clinical and histopathological scores for animals. After the skin was removed, the right hind limb was snap frozen in liquid nitrogen and RNA and protein analysis was performed.
Blood samples were collected from animals in groups 1-7 via cardiac puncture following euthanasia on Day 21. […] Serum was divided into two separate tubes and stored at −75±15° C. One tube was used to analyze IgG1, and the other tube was reserved for additional analyses.
H&E-stained slides of designated tissues from animals were transferred to an independent pathologist for microscopic evaluation (SPFBio). Samples were assigned the histologic grades based on the severity of change from tissue where CIA was not induced. Histology grades assigned were as follows: grade 1 (minimal change), grade 2 (mild change), grade 3 (moderate change), grade 4 (marked change), and grade 5 (severe change). A grade may be assigned for each indicator of disease severity: inflammation, mixed cell; granulation tissue; increased bone, periosteum; increased eroded surface, bone and erosion/ulcer, cartilaginous. […] Moderate inflammation was also associated with increased edema fluid, fibrin, and cellular debris. Marked mixed cell inflammation was characterized by dense, widespread accumulations of neutrophils and macrophages with lesser number of lymphocytes within one or more joint spaces, synovium and periarticular soft tissues. Marked inflammation was also associated with abundant edema fluid, fibrin, and cellular debris.
Marked granulation tissue (pannus) was associated with inflammation and was characterized by widespread fibrovascular connective tissue that expanded/replaced the periarticular soft tissues of one or more joints, extended into/expanded joint spaces, was contiguous with areas of erosion/ulcer in articular cartilage and/or increased eroded surface of bone, and variably extended along the diaphysis.
Marked increased periosteal bone (periosteal bone formation) was characterized by extensive areas of increased bone matrix and numerous prominent osteoblasts lining trabecular surfaces along the metaphysis and/or diaphysis of one or more bones.

Question: With CNC(=O)c1cc(C(=O)NC2CC2)cn(Cc2ccccc2)c1=O [GSK620] as the compound, how does the animals exhibiting disease (group 4, day 18) read?
Answer: all animals

Question: What about the “animals with weight gain at end of study” value of the same compound?
Answer: 4/8

Question: And the “diarrhea over the 21-day period” value?
Answer: did not have diarrhea

Question: And the “increase in body weight, day 21 vs day 0” value?
Answer: 0.8%

Question: And the “control of hind paw volume” value?
Answer: failed to prevent an increase in paw volume

Question: With Cn1cc(-c2ccccc2)c(-c2cn(C)c(=O)c3[nH]c(-c4cnn(C(F)(F)F)c4)cc23)cc1=O [Compound A, 6-methyl-4-(1-methyl-2-oxo-5-phenyl-1,2-dihydropyridin-4-yl)-2-(1-(trifluoromethyl)-1H-pyrazol-4-yl)-1,6-dihydro-7H-pyrrolo[2,3-c]pyridin-7-one] as the compound, how does the “plateau increase in paw volume relative to day 0” value (1 mg/kg (group 5), around day 18) read?
Answer: approximately 50%

Question: What about the animals exhibiting disease (1 mg/kg (group 5), day 14) of the same compound?
Answer: 5/8

Question: What about the animals exhibiting disease (1 mg/kg (group 5), day 18) of the same compound?
Answer: 7/8

Question: What about the “percent inhibition in clinical score relative to GSK620” value (1 mg/kg and 3 mg/kg vs GSK620 10 mg/kg) of the same compound?
Answer: nearly twice as high

Question: And the “percent inhibition of increase in paw volume relative to GSK620” value (1 mg/kg or 3 mg/kg vs GSK620 10 mg/kg)?
Answer: more than twice

Question: What about the “plateau increase in paw volume relative to day 0” value (3 mg/kg) of the same compound?
Answer: approximately 40%

Question: What about the animals exhibiting disease (3 mg/kg (group 6), day 15) of the same compound?
Answer: 4/8

Question: And the animals exhibiting disease (3 mg/kg (group 6), day 18)?
Answer: all animals

Question: And the animals exhibiting disease (10 mg/kg (group 7), day 15)?
Answer: 4/8

Question: And the animals exhibiting disease (10 mg/kg (group 7), day 18)?
Answer: 7/8

Question: And the “decrease in paw volume relative to CIA+Vehicle” value (10 mg/kg PO QD, Day 21)?
Answer: ~79%

Question: What about the “reduction in clinical score compared to vehicle-treated animals” value (10 mg/kg PO QD, Day 21) of the same compound?
Answer: ~71%

Question: And the “rat anti-collagen IgG1 antibodies, lower than vehicle treated animals” value (10 mg/kg, day 21, serum)?
Answer: > 98%

Question: What about the “plateau increase in paw volume relative to day 0” value (10 mg/kg, Group 7) of the same compound?
Answer: approximately 35%

Question: What about the “rat anti-collagen IgG1 antibodies relative to untreated CIA animals” value (1, 3 and 10 mg/kg, day 21, p<0.01) of the same compound?
Answer: significantly decreased

Question: What about the “average overall clinical score at plateau” value (group 5 (1 mg/kg), around day 18-19) of the same compound?
Answer: 5

Question: And the “average overall clinical score at plateau” value (group 6 (3 mg/kg), around day 18-19)?
Answer: 4

Question: And the “average overall clinical score at plateau” value (group 7 (10 mg/kg), around day 18-19)?
Answer: 4

Question: With C[C@@H]1C[C@H]2[C@@H]3CCC4=CC(=O)C=C[C@]4(C)[C@@]3(F)[C@@H](O)C[C@]2(C)[C@@]1(O)C(=O)CO [Dexamethasone, dexamethasone] as the compound, how does the “animals with weight gain at end of study” value read?
Answer: 4/8

Question: What about the “diarrhea over the 21-day period” value of the same compound?
Answer: did not have diarrhea

Question: What about the “increase in body weight, day 21 vs day 0” value of the same compound?
Answer: 1.3%

Question: And the “average overall clinical score at plateau” value (reference treatments (groups 3 and 4), around day 18)?
Answer: never exhibited any signs of disease

Question: What about the “control of hind paw volume” value of the same compound?
Answer: effective at controlling paw volume
